Measurements: patent US20110206720A1, “ANTI-INFLAMMATORY USAGE OF ANTRODIA CINNAMOMEA FRUIT BODY DERIVATIVES” (Taiwan Leader Biotech Corp, priority 2010, published 2011)

Legend:
Type in all cases: cell-based, mice
COX-2 = COX-2 protein expression in LPS-treated RAW 267.4, western blot; settings: RAW 267.4, LPS; dose-dependent, especially at 20 µg/ml; FIG. 5B
Procedure: (§1) After getting the total protein of macrophages, add the equal amount of protein in 5˜7% SDS-PAGE, resolve for 90 m at 300 mA, blotting (100V, 1 hour) proteins resolved in different sizes to polyvinylidene difluoride (PVDF, Immobilon, Millipore, Bedford, Mass.), and then put PVDF in the blocking buffer (10% w/v skim milk powder in TBST) for 1 hour.
(§2) Then, dip PVDF in the anti-iNOS solution (1:1000, Cayman Chemicals) and clean twice with 0.1% TBST buffer (TBS buffer containing 0.1% Tween 20) to clear the non-specific bonded antibody and antigen.
(§3) Next, dip PVDF in the anti-rabbit secondary antibodies solution with horseradish peroxidase, detect the fluorescence density of each group by enhanced chemiluminescene regents (ECL, Pierce), and take the expression of β-actin as the reference group.
(§4) In addition, total RNA and total protein are extracted from each group of macrophages. According to the paragraphs of RT-PCR and western blot analysis in Experiment I, the expression of iNOS and COX-2 are evaluated from the perspectives of mRNA and protein.

mRNA of COX-2 = assay: COX-2 mRNA expression in LPS-treated RAW 267.4, RT-PCR; settings: RAW 267.4, LPS; dose-dependent, higher dose; FIG. 4B
Procedure: (§5) Trizol reagent (Invitrogen Life Technologies, Carlsbad, Calif., USA) is used to extract the total RNA of macrophages. mRNA of iNOS, COX-2 and G3PDH is reversely transcribed to be cDNA by the RT-PCR, and then the expression of iNOS, COX-2 and G3PDH are quantified with the real time-PCR (Applied Biosystems).
(§6) Said real time-PCR detects the PCR products by DNA binding SYBR Green. The thermal cycles are: 95° C., 5 min, 1 min for 40 cycles at 95° C., 45 s for 55° C., and 30 s for 72° C. The sequence of primers is: iNOS forward 5′-TCC TAC ACC ACA CCA AAC-3′; iNOS reverse 5′-CTC CAA TCT CTG CCT ATC C-3′; COX-2 forward 5′-CCT CTG CGA TGC TCT TCC-3′, COX-2 reverse 5′-TCACACTTATACTGGTCAAATCC-3′, G3PDH forward 5′-TCA ACG GCA CAG TCA AGG-3′; G3PDH reverse 5′-ACT CCA CGA CAT ACT CAG C-3′. G3PDH are housekeeping genes which are genes with stable and large number of expression in cells and are used to standardize the expression of iNOS and COX-2 in the experiment.
as §4

mRNA of iNOS = assay: iNOS mRNA expression in LPS-treated RAW 267.4, RT-PCR; settings: RAW 267.4, LPS; dose-dependent, higher dose; FIG. 4A
Procedure: as §5, §6, §4

iNOS = iNOS protein expression in LPS-treated RAW 267.4, western blot; settings: RAW 267.4, LPS; dose-dependent, especially at […]; FIG. 5A
Procedure: as §1, §2, §3, §4

macrophage RAW 267.4 [1] = assay: LPS-elicited prostaglandin-E2 (PGE2) production in macrophage RAW 267.4, ELISA; design: unit not given here; settings: RAW 267.4, aspirin 3 hours, then LPS 1 g/ml 16 hours
Procedure: (§7) The invention chooses the macrophage RAW 267.4 of mice for the discussion about the production of NO and prostaglandin-E2 (PGE2). For the culture of RAW 267.4 cell, firstly inoculate RAW 267.4 macrophages growing in the culture plate (75 cm^2) in 96-well plate in the density of 2×10^5 cells/well and then culture them in the incubator (37° C., 5% CO2). DMEM culture medium is selected according to the recommendation of ATCC (American TypeCulture Collection), with 10% fetal bovine serum (FBS), penicillin (100 units/ml) and streptomycin ([…]) added.
In the experiment for measuring the production of prostaglandin-E2 (PGE2), firstly RAW 267.4 cells are cultured as Experiment I states and […] aspirin is added in the culture medium for 3 hours so that the endogenous COX-1 is deactivated. Then, they are handled for 1 hour in antrocamphin A (1, 5, 10, 20 g/ml) or curcumin (10 g/ml) and processed for 16 hours with LPS (1 g/ml). Finally, supernatant liquid in the cell culture is measured by ELISA kit (Cayman Chemicals) so as to get the production of prostaglandin-E2 (PGE2) in endogenous arachidonic acid.

macrophage RAW 267.4 [2] = assay: MTT test of toxicity to cells (cell survival rate)
Procedure: The invention chooses the macrophage RAW 267.4 of mice for the discussion about the production of NO and prostaglandin-E2 (PGE2). For the culture of RAW 267.4 cell, firstly inoculate RAW 267.4 macrophages growing in the culture plate (75 cm^2) in 96-well plate in the density of 2×10^5 cells/well and then culture them in the incubator (37° C., 5% CO2). DMEM culture medium is selected according to the recommendation of ATCC (American TypeCulture Collection), with 10% fetal bovine serum (FBS), penicillin (100 units/ml) and streptomycin ([…]) added. In addition, the familiar MTT is utilized to test the toxicity of Antrocamphin A to cells. Said MTT is a method for detecting cell survival rate or cell proliferation in biology on principle that succinate dehydrogenase in the mitochondria of live cell metabolizes tetrazolium of MTT to be blue products. After DMSO is added to resolve the blue metabolized products accumulated in cells, the amount of blue metabolized products is measured by spectrometer to indirectly calculate the number of live cells.

macrophage RAW 267.4 [3] = assay: LPS-elicited NO production in macrophage RAW 267.4, nitrite by Griess reaction; design: unit not given here; settings: then LPS 1 g/ml 24 hours
Procedure: as §7
Firstly, RAW 267.4 is cultured as detailed in Experiment I and divided into three groups: group 1 (ACE), group 2 (ACE-EA) and group 3 (ACE-water). For each group, add said ACE, ACE-EA and ACE-water of different concentrations (1, 10, 25, 50 g/ml) in the culture medium, add LPS to elicit RAW267.4 producing NO, and measure the content of nitrite after 24 hours by Griess reaction to indirectly measure the amount of NO.
NO activity inhibition tests are conducted on RAW 267.4 macrophages (see reference in Cell culture, Experiment I) to 17 fractions respectively. Firstly, divide RAW 267.4 cells into 17 groups, add 17 fractions (50 g/ml) in the culture medium, and then add LPS (1 g/ml) to elicit the production of NO. 24 hours later, Griess reaction is conducted to measure the content of nitrites and thus indirectly measuring the production of NO and calculating the inhibition rate of NO.
In the experiment of production of NO, firstly RAW 267.4 cells are cultured as Experiment I states, handled for 1 hour in antrocamphin A (1, 5, 10, 20 g/ml) or curcumin (10 g/ml), and then processed for 24 hours with LPS (1 g/ml). Then, Griess reaction is conducted to measure the content of nitrites and thus indirectly obtaining the production of NO.

`C=C(C)C#Cc1c(OC)cc(OC)c(OC)c1C` [antrocamphin A, Antrocamphin A] was tested, and the “expression of COX-2 (protein)” value (COX-2) was “effectively reduce the expression of iNOS and COX-2”, the “expression of mRNA of COX-2” value (mRNA of COX-2) was “effectively reduce the amount of mRNA of iNOS and COX-2” and the “expression of mRNA of iNOS” value (mRNA of iNOS) was “effectively reduce the amount of mRNA of iNOS and COX-2”. The “expression of iNOS (protein)” value (iNOS) was “effectively reduce the expression of iNOS and COX-2”, the “Production of prostaglandin-E2 (PGE2)” value (macrophage RAW 267.4 [1]; 1 g/ml for 1 hour) was 411.5 ± 20.92 and the “Production of prostaglandin-E2 (PGE2)” value (macrophage RAW 267.4 [1]; 5 g/ml for 1 hour) was 360.9 ± 23.95. For the same molecule, the “Production of prostaglandin-E2 (PGE2)” value (macrophage RAW 267.4 [1]; 10 g/ml for 1 hour) was 237.96 ± 83.85, the “Production of prostaglandin-E2 (PGE2)” value (macrophage RAW 267.4 [1]; 20 g/ml for 1 hour) was 24.62 ± 15.36 and the “Cell survival rate (%)” value (macrophage RAW 267.4 [2]; MTT, RAW 267.4, 1 g/ml, with LPS) was 93 ± 4.13%. The “Cell survival rate (%)” value (macrophage RAW 267.4 [2]; MTT, RAW 267.4, 5 g/ml, with LPS) was 92 ± 5.49%, the “Cell survival rate (%)” value (macrophage RAW 267.4 [2]; MTT, RAW 267.4, 10 g/ml, with LPS) was 89 ± 3.22% and the “Cell survival rate (%)” value (macrophage RAW 267.4 [2]; MTT, RAW 267.4, 20 g/ml, with LPS) was 79 ± 3.54%. The “Production of NO (M)” value (macrophage RAW 267.4 [3]; RAW 267.4, 1 g/ml for 1 hour) was 18 ± 0.36, the “Production of NO (M)” value (macrophage RAW 267.4 [3]; RAW 267.4, 5 g/ml for 1 hour) was 14.68 ± 0.54 and the “Production of NO (M)” value (macrophage RAW 267.4 [3]; RAW 267.4, 10 g/ml for 1 hour) was 11.14 ± 0.18. The “Production of NO (M)” value (macrophage RAW 267.4 [3]; RAW 267.4, 20 g/ml for 1 hour) was 7.27 ± 0.18.

With `COc1cc(/C=C/C(=O)CC(=O)/C=C/c2ccc(O)c(OC)c2)ccc1O` [curcumin, reference compound] the “Production of prostaglandin-E2 (PGE2)” value (macrophage RAW 267.4 [1]; 10 g/ml for 1 hour) was 6.82 ± 5.2 and the “Cell survival rate (%)” value (macrophage RAW 267.4 [2]; mouse, 10 g/ml) was 76 ± 4.6%.
